For 13 compounds, IC50 results are on record in patent publication US20250275959A1, “COMPOUNDS AND METHODS OF THEIR USE” (LEXICON PHARMACEUTICALS, INC., priority 2024, published 2025).

Chain of hACSL5 (Q9ULC5 33-683): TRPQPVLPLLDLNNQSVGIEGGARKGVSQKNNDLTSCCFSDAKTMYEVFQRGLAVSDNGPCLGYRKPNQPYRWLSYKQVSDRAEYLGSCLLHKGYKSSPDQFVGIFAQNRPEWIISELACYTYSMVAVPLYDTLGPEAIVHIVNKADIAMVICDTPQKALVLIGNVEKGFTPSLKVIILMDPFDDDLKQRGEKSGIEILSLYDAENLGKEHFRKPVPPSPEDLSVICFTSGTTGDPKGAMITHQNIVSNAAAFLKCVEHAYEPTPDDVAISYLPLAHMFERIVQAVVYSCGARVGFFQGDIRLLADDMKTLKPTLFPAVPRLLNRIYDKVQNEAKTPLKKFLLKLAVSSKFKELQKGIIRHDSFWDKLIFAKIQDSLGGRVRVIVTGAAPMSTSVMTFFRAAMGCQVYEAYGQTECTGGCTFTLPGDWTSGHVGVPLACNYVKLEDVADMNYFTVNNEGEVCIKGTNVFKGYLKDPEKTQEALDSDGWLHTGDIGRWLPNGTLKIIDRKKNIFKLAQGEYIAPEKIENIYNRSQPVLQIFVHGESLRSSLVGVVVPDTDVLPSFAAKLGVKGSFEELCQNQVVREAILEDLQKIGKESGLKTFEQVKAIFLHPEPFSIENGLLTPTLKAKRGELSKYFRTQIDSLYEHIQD

The target in this assay is hACSL5 (Homo sapiens (Human), UniProt Q9ULC5). Put plainly: Human ACSL5 coupled enzyme Amplex Red assay. The note with it: read-out: hACSL5 IC50. It counts as biochemical. The method, then:
Human ACSL5 (33-683) was cloned with a C-terminal 6 His tag and expressed in insect cells (sf9) as per standard insect cell expression protocols. Human ACSL5 was enriched by affinity nickel affinity chromatography followed by Superdex S200 gel filtration column equilibrated in 20 mM HEPES pH 7.8, 500 mM NaCl, 1 mM TCEP, 5% glycerol, 0.1% Triton X^100.
Inhibition of ACSL5 enzyme activity was monitored with a coupled enzyme Amplex Red assay.
The assay is carried out in 384-well microtiterplates. In a total volume of […], compounds are preincubated with 20 nM ACSL5, in a buffer containing 150 mM MOPS-NaOH, 12 mM MgCl2, 0.03% (v/v) Triton X-100, 2.79 U mL-1 Peroxidase and 24 U mL-1 Acyl-CoA Oxidase (pH 7.6). The reaction is started by the addition of substrate and co factors (25 μM oleate, 30 μM CoA, 1 mM ATP and 50 μM Amplex Red) and the fluorescence detected after 10 minutes at 25° C. with a fluorescence reader (BMG-Fluostar; BMG-Technologies) using an excitation wavelength of 535 nm and an emission wavelength of 590 nm.
Concentration-response titration points for each compound tested were filled to the Hill equation yielding concentrations of half maximal inhibition […] and maximal inhibition values.
As for `CC[C@@H](Oc1ccc(C(=O)NS(=O)(=O)N2CCN(CCCF)CC2)c(F)c1F)c1ccc(OCC2CC2)cn1` [(R)-4-(1-(5-(cyclopropylmethoxy)pyridin-2-yl)propoxy)-2,3-difluoro-N-((4-(3-fluoropropyl)piperazin-1-yl)sulfonyl)benzamide], the IC50 (usually the point on the concentration scale where inhibition reaches its midpoint) was below 100 nM.

For the compound `CC[C@@H](Oc1ccc(C(=O)NS(=O)(=O)N2CCC(OC3CN(C)C3)CC2)c(F)c1F)c1ccc(OCC2CC2)cn1` [(R)-4-(1-(5-(cyclopropylmethoxy)pyridin-2-yl)propoxy)-2,3-difluoro-N-((4-((1-methylazetidin-3-yl)oxy)piperidin-1-yl)sulfonyl)benzamide], the IC50 was in the range of 100 to 500 nM.

Regarding `CC[C@@H](Oc1ccc(C(=O)NS(=O)(=O)N2CC3=C(CN(C)C3)C2)c(F)c1F)c1ccc(OCC2CC2)cn1` [(R)-4-(1-(5-(cyclopropylmethoxy)pyridin-2-yl)propoxy)-2,3-difluoro-N-((5-methyl-3,4,5,6-tetrahydropyrrolo[3,4-c]pyrrol-2(1H)-yl)sulfonyl)benzamide], the IC50 lay in the range of 100 to 500 nM.

For `CC[C@@H](Oc1ccc(C(=O)NS(=O)(=O)N2CC3(CN(C)C3)C2)c(F)c1F)c1ccc(OCC2CC2)cn1` [(R)-4-(1-(5-(cyclopropylmethoxy)pyridin-2-yl)propoxy)-2,3-difluoro-N-((6-methyl-2,6-diazaspiro[3.3]heptan-2-yl)sulfonyl)benzamide], the IC50 lay within 100 to 500 nM.

Consider `CC[C@@H](Oc1ccc(C(=O)NS(=O)(=O)N2CCC(OCCN(C)C)CC2)c(F)c1F)c1ccc(OCCOC)cn1` [(R)-N-((4-(2-(dimethylamino)ethoxy)piperidin-1-yl)sulfonyl)-2,3-difluoro-4-(1-(5-(2-methoxyethoxy)pyridin-2-yl)propoxy)benzamide], for which the IC50 is above 500 nM.

With `CC(Oc1ccc(C(=O)NS(=O)(=O)CCN)c(Cl)c1Cl)c1cccc(Oc2ccccc2)c1` (stereo not shown) [N-((2-aminoethyl)sulfonyl)-2,3-dichloro-4-(1-(3-phenoxyphenyl)ethoxy)benzamide], the IC50 fell in the range of 100 to 500 nM.

As to `CC(Oc1ccc(C(=O)NS(=O)(=O)CCCN2CCOCC2)cc1C(F)(F)F)c1ccc(Oc2cccnn2)cn1` (stereo not shown) [N-((3-morpholinopropyl)sulfonyl)-4-(1-(5-(pyridazin-3-yloxy)pyridin-2-yl)ethoxy)-3-(trifluoromethyl)benzamide], the IC50 is 100 to 500 nM.

On to `NCCc1ccc(S(=O)(=O)NC(=O)c2ccc(OCc3cccc(Oc4ccccc4)c3)c(F)c2F)cc1` [N-((4-(2-aminoethyl)phenyl)sulfonyl)-2,3-difluoro-4-((3-phenoxybenzyl)oxy)benzamide], for which the IC50 fell in the range of 100 to 500 nM.

On to `CN(C)Cc1ccc(S(=O)(=O)NC(=O)c2ccc(OCc3cccc(Oc4ccccc4)c3)c(F)c2F)cc1` [N-((4-((dimethylamino)methyl)phenyl)sulfonyl)-2,3-difluoro-4-((3-phenoxybenzyl)oxy)benzamide], for which the IC50 lay in the range of 100 to 500 nM.

As to `CC(COc1ccc(C(=O)NS(=O)(=O)c2ccc(CN)cc2)c(Cl)c1Cl)c1cccc(Oc2ccccc2)c1` (stereo not shown) [N-((4-(aminomethyl)phenyl)sulfonyl)-2,3-dichloro-4-(2-(3-phenoxyphenyl)propoxy)benzamide], the half-maximal inhibitory concentration (IC50) lay in the range of 100 to 500 nM.

As to `NCc1ccc(S(=O)(=O)NC(=O)c2ccc(OCc3cccc(Oc4ccccc4)c3)c(Cl)c2Cl)cc1` [N-((4-(aminomethyl)phenyl)sulfonyl)-2,3-dichloro-4-((3-phenoxybenzyl)oxy)benzamide], the IC50 is below 100 nM.

Take `CC(Oc1ccc(C(=O)NS(=O)(=O)c2ccc(CN)cc2)c(F)c1F)c1cccc(Oc2cccnc2)c1` (stereo not shown) [N-((4-(aminomethyl)phenyl)sulfonyl)-2,3-difluoro-4-(1-(3-(pyridin-3-yloxy)phenyl)ethoxy)benzamide]: the IC50 is below 100 nM.

For `CC(Oc1ccc(C(=O)NS(=O)(=O)c2ccc(CN)cc2)c(F)c1F)c1cccc(Oc2ccccc2)c1` (stereo not shown) [N-((4-(aminomethyl)phenyl)sulfonyl)-2,3-difluoro-4-(1-(3-phenoxyphenyl)ethoxy)benzamide], the IC50 is below 100 nM.
